Reference: publication PMC8512011, “A Semi Rigid Novel Hydroxamate AMPED-Based Ligand for ^89Zr PET Imaging” (Molecules, 2021)
Entries after “also recorded” stand apart in the source; their conditions may differ. Each block holds one compound with its values, some of them ahead of it.

Legend:
[1] = In vitro stability of ^89Zr complexes in EDTA solution (transchelation challenge, radio-TLC / iTLC); assay type: physicochemical; parameters: dose or concentration left out as unconfirmed; details: 37 °C
Method: Stability studies were performed on ^89Zr labeled AAZTHAS and AAZTHAG to test the effect of the pendant arm length on complex stability. […]
(§1) After the purification step and analysis of the radioactive complex via radio-HPLC, the stability assessment of the complex at different time points and in different solutions was carried out. ^89Zr-AAZTHAS and ^89Zr-AAZTHAG were dissolved in formulation buffer, EDTA 5 mM, and human serum in 1:5 v/v ratio and were incubated at 37 °C up to 96 h. […] At each time point the stability was evaluated by radio-iTLC (Elution solution 1) using an instant thin-layer chromatographic strip (iTLC, Agilent).

[2] = In vitro stability of ^89Zr complexes in formulation buffer (radio-TLC / iTLC); assay type: physicochemical; details: formulation buffer (3 mM gentisic acid + 0.25 M NaOAc, pH 5.5), 37 °C
Method: (§2) Stability studies were performed on ^89Zr labeled AAZTHAS and AAZTHAG to test the effect of the pendant arm length on complex stability. The stability of the two ^89Zr-complexes was investigated by radio-TLC after incubation for 72 h at 37 °C in formulation buffer, EDTA 5 mM (1000-fold excess), and human serum (HS).
as §1

[3] = Small animal PET/CT static scans at different time points; assay type: in vivo, healthy female nude mice; details: six time points 30 min to 24 h, n = 3
Method: Based on the good preliminary in vitro stability results, we investigated the behavior of ^89Zr-AAZTHAG in vivo in healthy female nude mice (n = 3) by acquiring PET/CT images at six different time points (30 min, 3 h, 6 h, 9 h, 12 h, and 24 h), and mice were then sacrificed 24 h p.i. to perform a biodistribution study.
(§3) In order to study the biodistribution and the in vivo stability of the ^89Zr-AAZTHAG, 8 weeks old pathogen-free female athymic Nude-Foxn1nu/nu mice (Charles River Laboratories, Sulzfeld, Germany) (n = 3) were injected via a catheter in the tail vein with 2.9 ± 0.1 MBq of ^89Zr-AAZTHAG in 300 μL NaCl 0.9% solution, and imaged at different time points (30 min, 3 h, 6 h, 9 h, 12 h, 24 h) via PET/CT static acquisition using an Inveon Small Animal PET/CT scanner (Siemens, Knoxville, TN, USA).

[4] = In vitro stability of ^89Zr complexes in human serum (radio-TLC / iTLC); assay type: in vitro ADME; details: for % of ^89Zr complexed over total activity: human serum (HS)
Method: as §2, §1

[5] = Ex vivo biodistribution (tracer accumulation in organs, γ-counter) 24 h p.i.; parameters: species or system female athymic Nude-Foxn1nu/nu mice; details: i.v. tail vein, n = 3, ± SD
Method: as §3
Biodistribution studies were also performed to assess the in vivo distribution of the ^89Zr-AAZTHAG complex and evaluate its in vivo stability. After sacrifice, the mice by anesthesia, blood, and other selected organs were collected, weighed, and the activity was measured by a γ-counter. The tracer accumulation in selected organs was expressed as a percentage of injected dose per gram of tissue (%ID/g).

% of ^89Zr complexed over total activity ([1]; Day 0): 30.6 ± 30.3% | % of ^89Zr complexed over total activity ([1]; Day 1): 4.4 ± 3.9% | % of ^89Zr complexed over total activity ([1]; Day 2): 2.4 ± 0.1% | % of ^89Zr complexed over total activity ([1]; Day 3): 3.2 ± 2.6% | % of ^89Zr complexed over total activity ([2]; Day 0): 91.5 ± 10.6% | % of ^89Zr complexed over total activity ([2]; Day 1): 83.0 ± 6.5% | % of ^89Zr complexed over total activity ([2]; Day 2): 78.1 ± 13.8% | % of ^89Zr complexed over total activity ([2]; Day 3 (72 h)): 73 ± 5% | % of ^89Zr complexed over total activity ([2]; Day 3 (72 h), listed as AAZTHAG): 73.0 ± 5.2% | Excretion route seen in PET/CT images [3]: hepatobiliary and renal excretion | Signal in bones during PET acquisition (release of Zr-89) [3]: low signal in bones | Time for which the ^89Zr-complex is stable in HS ([4]; human serum): at least 4 h | % of ^89Zr complexed over total activity ([4]; 37 °C, Day 0): 92.0 ± 11.3% | % of ^89Zr complexed over total activity ([4]; 37 °C, Day 1): 77.7 ± 18.6% | % of ^89Zr complexed over total activity ([4]; 37 °C, Day 2): 76.9 ± 15.4% | % of ^89Zr complexed over total activity ([4]; 37 °C, Day 3 (72 h)): 87 ± 5% | % of ^89Zr complexed over total activity ([4]; 37 °C, Day 3 (72 h), listed as AAZTHAG): 86.4 ± 5.5% | Radioactivity accumulated in bladder ([5]; Bladder): 0.049 ± 0.010 %ID/g | Radioactivity accumulated in blood ([5]; Blood): 0.007 ± 0.005 %ID/g | Radioactivity accumulated in brain ([5]; Brain): 0.002 ± 0.001 %ID/g | Radioactivity accumulated in femur ([5]; Femur): 0.193 ± 0.108 %ID/g | Radioactivity accumulated in heart ([5]; Heart): 0.010 ± 0.004 %ID/g | Radioactivity accumulated in kidney ([5]; Kidney): 0.575 ± 0.199 %ID/g | Radioactivity accumulated in large intestine ([5]; Large Intestine): 0.020 ± 0.010 %ID/g | Radioactivity accumulated in liver ([5]; Liver): 0.041 ± 0.010 %ID/g | Radioactivity accumulated in lung ([5]; Lung): 0.021 ± 0.007 %ID/g | Radioactivity accumulated in muscle ([5]; Muscle): 0.006 ± 0.002 %ID/g | Radioactivity accumulated in pancreas ([5]; Pancreas): 0.016 ± 0.008 %ID/g | Radioactivity accumulated in small intestine ([5]; Small Intestine): 0.012 ± 0.006 %ID/g | Radioactivity accumulated in spleen ([5]; Spleen): 0.029 ± 0.005 %ID/g | Radioactivity accumulated in stomach ([5]; Stomach): 0.014 ± 0.005 %ID/g | Radioactivity accumulated in tail ([5]; Tail): 0.040 ± 0.013 %ID/g
Structure (SMILES): CN(O)C(=O)CCCC(=O)NC1(C)CN(C(=O)CCCC(=O)N(C)O)CCN(C(=O)CCCC(=O)N(C)O)C1 [^89Zr-AAZTHAG, metal not drawn]

% of ^89Zr complexed over total activity ([1]; Day 0): 15.1% | % of ^89Zr complexed over total activity ([1]; Day 1): 1.0% | % of ^89Zr complexed over total activity ([1]; Day 2): 1.6% | % of ^89Zr complexed over total activity ([2]; Day 0): 71.0% | % of ^89Zr complexed over total activity ([2]; Day 1): 63.3% | % of ^89Zr complexed over total activity ([2]; Day 2): 62.3% | % of ^89Zr complexed over total activity ([2]; Day 3 (72 h)): 42% | % of ^89Zr complexed over total activity ([4]; 37 °C, Day 0): 71.0% | % of ^89Zr complexed over total activity ([4]; 37 °C, Day 1): 76.8% | % of ^89Zr complexed over total activity ([4]; 37 °C, Day 2): 59.2% | % of ^89Zr complexed over total activity ([4]; 37 °C, Day 3 (72 h)): 46%
Structure (SMILES): CN(O)C(=O)CCC(=O)NC1(C)CN(C(=O)CCC(=O)N(C)O)CCN(C(=O)CCC(=O)N(C)O)C1 [^89Zr-AAZTHAS, metal not drawn]
Behaviour of the complex on incubation in HS (precipitation) ([4]; human serum, 37 °C): tends to precipitate over time; also recorded: precipitates
